The source of these data is CN110478361A, “一种安全性高的灯盏花乙素药物组合物及其制备方法” (KUNMING LONGJIN PHARMACEUTICAL CO Ltd, priority 2018, dated 2019).

The term NOAEL denotes the highest tested level that showed no adverse finding.

For data set [1] the following is noted: in air; cited from earlier work.
The conditions of data set [2]: aglycone and active metabolite of scutellarin, compared with scutellarin; cited from earlier work.
The nature of data set [3]: Single-dose oral gavage toxicity in SD rats. It is filed as in vivo, rat. The conditions noted are these: in vivo; SD rat, single oral gavage, 5000 mg/kg; 14 days observation; read-out: maximum administered dose.
Data set [4] has as its system SD rats (SD大鼠). In words: Single-dose oral gavage toxicity in SD rats. It is filed as in vivo, rat. The conditions noted are these: worked out from rat single oral dose.
For data set [5], the system named is rat dementia caused by kainic acid (海人藻酸所致大鼠痴呆). The conditions noted are these: male Wistar rats; cited from earlier work.
The test system of data set [6] is rat dementia caused by β-amyloid (β-淀粉样蛋白致大鼠痴呆). The settings on record: male Wistar rats; cited from earlier work.
Data set [7] concerns reflux oesophagitis and gastritis (反流性食道炎以及抗胃炎). The conditions noted are these: cited from earlier work.
The nature of data set [8]: Clarity test (compared with yellow-green No. 6 standard colour solution, Chinese Pharmacopoeia 2015, general chapter 0901, method 1). It is filed as physicochemical. The conditions noted are these: 0.02 mg per mL in 1% sodium hydrogencarbonate solution, inspected within 5 minutes.
The nature of data set [9]: Single-dose intravenous toxicity in SD rats. It is filed as in vivo, rat. The settings on record: in vivo, iv; SD rat, single i.v., injectable breviscapine made from Example 1; 500, 750, 1000 mg/kg; 14 days observation; read-out: maximum tolerated dose (MTD).
Data set [10] relates to SD rats (SD大鼠). Briefly: Single-dose intravenous toxicity in SD rats. It is filed as in vivo, rat. The settings on record: worked out from rat single i.v. MTD.
Data set [11] in a line: Repeated-dose intravenous toxicity in SD rats, four weeks with four-week recovery. It is filed as in vivo, rat. The conditions noted are these: in vivo, iv; SD rat, i.v. once daily, 28 days, recovery 29 days; 200, 400, 600 mg/kg; injectable breviscapine made from Example 1; read-out: no observed adverse effect level (NOAEL).
In data set [12] the test system is SD rats (SD大鼠). The description is as above. It is filed as in vivo, rat. The conditions noted are these: worked out from rat 28-day i.v. NOAEL.
Data set [13] can be described thus: Single-dose intravenous toxicity in Beagle dogs. It is filed as in vivo, dog. The conditions noted are these: in vivo, iv; Beagle dog, single i.v., injectable breviscapine made from Example 1; 200, 400 mg/kg; 14 days observation; read-out: maximum tolerated dose (MTD).
Data set [14] deals with Beagle dogs (Beagle犬). Briefly: Single-dose intravenous toxicity in Beagle dogs. It is filed as in vivo, dog. The settings on record: worked out from dog single i.v. MTD.
The nature of data set [15]: Repeated-dose intravenous toxicity in Beagle dogs, four weeks with four-week recovery. It is filed as in vivo, dog. The conditions noted are these: in vivo, iv; Beagle dog, i.v. once daily, 28 days, recovery 28 days; 25, 50, 100 mg/kg; injectable breviscapine made from Example 1; read-out: no observed adverse effect level (NOAEL).
Data set [16] deals with Beagle dogs (Beagle犬). The description is as above. It is filed as in vivo, dog. The settings on record: worked out from dog 28-day i.v. NOAEL.
The mark [17] stands for this setting: compared with apigenin and omeprazole.

Consider `O=c1cc(-c2ccc(O)cc2)oc2cc(O)c(O)c(O)c12` [野黄芩素], for which, in data set [1], the stability entry is on record as “在空气中易氧化变为醌类衍生物”. The related biological activity result in [2] is “更强相关生物活性”.

In the case of `O=C(O)[C@H]1O[C@@H](Oc2cc3oc(-c4ccc(O)cc4)cc(=O)c3c(O)c2O)[C@H](O)[C@@H](O)[C@@H]1O` [实施例2], the MTD at 336 h in [3] came out at 5000 mg/kg. Also, the “equivalent human daily intake of the maximum administered dose” value with SD rats (SD大鼠) [4] is listed as 50 g.

As to `O=C(O)[C@H]1O[C@@H](Oc2cc(O)c3c(=O)cc(-c4ccc(O)cc4)oc3c2)[C@H](O)[C@@H](O)[C@@H]1O` [5,4’-二羟基黄酮-7-O-β-D-葡萄糖醛酸], the “effect on pathological changes of brain tissue” value in data set [5] is recorded as “有一定改善作用”. Further, in data set [6], the “effect on pathological damage of cerebral cortex and hippocampus” value is reported as “可减轻β-淀粉样蛋白所致大鼠脑皮层及海马的病理损害”; the “therapeutic effect on dementia” value is reported as “有一定的治疗作用”. In [7] (setting [17]), the “anti-reflux-oesophagitis and anti-gastritis effect” value is “比芹菜素和奥美拉唑更有效”; the “reduction of the extent of gastric lesions” value is “比芹菜素和奥美拉唑更能有效的减小胃损伤范围”. Moreover, in data set [7] (mouse, in vivo), the “MOA content produced by induced reflux oesophagitis” value is listed as “减少由诱导反流性食管炎而产生的MOA的含量”, the antioxidant activity entry was “有抗氧化活性” and the “glutathione (GSH) produced in acute oesophagitis” value is “清除急性食管炎产生的谷胱甘肽(GSH)”.

For the molecule `O=C(O)[C@H]1O[C@@H](Oc2cc3oc(-c4ccc(O)cc4)cc(=O)c3c(O)c2O)[C@H](O)[C@@H](O)[C@@H]1O` [实施例1], in data set [8], the clarity test conclusion entry is listed as “符合规定”. Besides, the values for the MTD at 336 h in data set [9] and in data set [13] were 750 mg/kg and 200 mg/kg, respectively. For the same molecule, the “equivalent human daily intake of the MTD” value with SD rats (SD大鼠) [10] was found to be 7500 mg; in the data set on Beagle dogs (Beagle犬) [14], 6666 mg. Further, the NOAEL at 672 h was found to be 200 mg/kg in [11] and 25 mg/kg in [15]. Besides, the “equivalent human daily intake of the NOAEL” value in the data set with SD rats (SD大鼠) [12] is recorded as 2000 mg; in the data set on Beagle dogs (Beagle犬) [16], 833.3 mg.
